We go through one compound from patent publication US10358425B1, “Dihydropyrimidones and pharmaceutical compositions thereof” (King Abdulaziz University, priority 2018, dated 2019).

As a reminder, the melting point is the temperature, or range, at which the solid turns liquid. As to `O=C1NC(O)=C(C(=O)c2ccccc2)C(c2ccccc2)N1` (stereo not shown) [Compound 7, 5-benzoyl-6-hydroxy-4-phenyl-3,4-dihydropyrimidin-2(1H)-one], the melting point was 267 °C.
